# From ChEMBL document CHEMBL3885861, “Open TG-GATES”
# Organism: Rattus norvegicus
# Assay: Open TG-GATES - Regimen: Daily Repeat
# Format: toxicity, organism-based, Sprague-Dawley
# Design: regimen Daily Repeat, gender Male, age 6 weeks
# Conditions: in vivo, po, 120 mg/kg, route gavage, dose level Middle; for APTT / Bas / Eos / Fbg / Ht / Lym / MCHC / MCV / Mono / PT / Plat / RBC / Ret / WBC: tissue Blood; for KIDNEY_L / KIDNEY_R / KIDNEY_TOTAL: tissue Kidney; for LIVER: tissue Liver; for ALP / ALT / AST / BUN / CRE / Ca / Cl / DBIL / IP / LDH / Na / PL / RALB / TBIL / TC / TG / TP / gamma-GTP: tissue Plasma
smiles,measurement,setting,value
CC(C)N(CCC(C(N)=O)(c1ccccc1)c1ccccn1)C(C)C (configuration not stated) [DISOPYRAMIDE],APTT,"72 h, time 3 day",20.4 s
same,Bas,"72 h, time 3 day",0%
same,Eos,"72 h, time 3 day",1%
same,Fbg,"72 h, time 3 day",319.6 mg/dL
same,Ht,"72 h, time 3 day",41.1%
same,Lym,"72 h, time 3 day",78.4%
same,MCHC,"72 h, time 3 day",32.2%
same,MCV,"72 h, time 3 day",62.6 fL
same,Mono,"72 h, time 3 day",2.6%
same,PT,"72 h, time 3 day",15.5 s
same,Plat,"72 h, time 3 day",125 x10_4/uL
same,RBC,"72 h, time 3 day",657.8 x10_4/ul
same,Ret,"72 h, time 3 day",5.3%
same,WBC,"72 h, time 3 day",107.5 x10_2/uL
same,KIDNEY_L,"72 h, time 3 day",1 g
same,KIDNEY_R,"72 h, time 3 day",1 g
same,KIDNEY_TOTAL,"72 h, time 3 day",2 g
same,LIVER,"72 h, time 3 day",10.6 g
same,ALP,"72 h, time 3 day",1634.4 IU/L
same,ALT,"72 h, time 3 day",52.4 IU/L
same,AST,"72 h, time 3 day",74 IU/L
same,BUN,"72 h, time 3 day",15.6 mg/dL
same,CRE,"72 h, time 3 day",0.2 mg/dL
same,Ca,"72 h, time 3 day",10.8 mg/dL
same,Cl,"72 h, time 3 day",106.6 meq/L
same,DBIL,"72 h, time 3 day",0 mg/dL
same,IP,"72 h, time 3 day",7.7 mg/dL
same,LDH,"72 h, time 3 day",174.6 IU/L
same,Na,"72 h, time 3 day",142.8 meq/L
same,PL,"72 h, time 3 day",151.2 mg/dL
same,RALB,"72 h, time 3 day",2.9 g/dL
same,TBIL,"72 h, time 3 day",0 mg/dL
same,TC,"72 h, time 3 day",79.2 mg/dL
same,TG,"72 h, time 3 day",111.8 mg/dL
same,TP,"72 h, time 3 day",5.4 g/dL
same,gamma-GTP,"72 h, time 3 day",1.6 IU/L
same,TERMINAL_BW,"[…], time 7 day",247.4 g
same,TERMINAL_BW,"[…], time 14 day",313.2 g
same,TERMINAL_BW,"[…], time 28 day",369.7 g
same,APTT,"[…], time 7 day",21.5 s
same,Bas,"[…], time 7 day",0%
same,Eos,"[…], time 7 day",1%
same,Fbg,"[…], time 7 day",327.2 mg/dL
same,Ht,"[…], time 7 day",41%
same,Lym,"[…], time 7 day",82%
same,MCHC,"[…], time 7 day",32.6%
same,MCV,"[…], time 7 day",59.6 fL
same,Mono,"[…], time 7 day",1.8%
same,PT,"[…], time 7 day",15.8 s
same,Plat,"[…], time 7 day",116.6 x10_4/uL
same,RBC,"[…], time 7 day",688.8 x10_4/ul
same,Ret,"[…], time 7 day",5.7%
same,WBC,"[…], time 7 day",102 x10_2/uL
same,APTT,"[…], time 14 day",23.1 s
same,Bas,"[…], time 14 day",0%
same,Eos,"[…], time 14 day",0.8%
same,Fbg,"[…], time 14 day",331.4 mg/dL
same,Ht,"[…], time 14 day",41.2%
same,Lym,"[…], time 14 day",79.8%
same,MCHC,"[…], time 14 day",32.5%
same,MCV,"[…], time 14 day",58.9 fL
same,Mono,"[…], time 14 day",2.4%
same,PT,"[…], time 14 day",15.5 s
same,Plat,"[…], time 14 day",117.3 x10_4/uL
same,RBC,"[…], time 14 day",700.2 x10_4/ul
same,Ret,"[…], time 14 day",4.5%
same,WBC,"[…], time 14 day",125.1 x10_2/uL
same,APTT,"[…], time 28 day",24.7 s
same,Bas,"[…], time 28 day",0%
same,Eos,"[…], time 28 day",1%
same,Fbg,"[…], time 28 day",323.2 mg/dL
same,Ht,"[…], time 28 day",42.5%
same,Lym,"[…], time 28 day",79.2%
same,MCHC,"[…], time 28 day",33.7%
same,MCV,"[…], time 28 day",55.5 fL
same,Mono,"[…], time 28 day",2.4%
same,PT,"[…], time 28 day",15.2 s
same,Plat,"[…], time 28 day",103.8 x10_4/uL
same,RBC,"[…], time 28 day",768.2 x10_4/ul
same,Ret,"[…], time 28 day",2.6%
same,WBC,"[…], time 28 day",105.7 x10_2/uL
same,KIDNEY_L,"[…], time 7 day",1.1 g
same,KIDNEY_R,"[…], time 7 day",1.1 g
same,KIDNEY_TOTAL,"[…], time 7 day",2.2 g
same,KIDNEY_L,"[…], time 14 day",1.2 g
same,KIDNEY_R,"[…], time 14 day",1.3 g
same,KIDNEY_TOTAL,"[…], time 14 day",2.5 g
same,KIDNEY_L,"[…], time 28 day",1.4 g
same,KIDNEY_R,"[…], time 28 day",1.5 g
same,KIDNEY_TOTAL,"[…], time 28 day",2.9 g
same,LIVER,"[…], time 7 day",11.4 g
same,LIVER,"[…], time 14 day",14.2 g
same,LIVER,"[…], time 28 day",15.6 g
same,ALP,"[…], time 7 day",1449.8 IU/L
same,ALT,"[…], time 7 day",48.2 IU/L
same,AST,"[…], time 7 day",77.4 IU/L
same,BUN,"[…], time 7 day",16.4 mg/dL
same,CRE,"[…], time 7 day",0.2 mg/dL
same,Ca,"[…], time 7 day",10.6 mg/dL
same,Cl,"[…], time 7 day",106.2 meq/L
same,DBIL,"[…], time 7 day",0 mg/dL
same,IP,"[…], time 7 day",7.5 mg/dL
same,LDH,"[…], time 7 day",167.8 IU/L
same,Na,"[…], time 7 day",141.6 meq/L
same,PL,"[…], time 7 day",145 mg/dL
same,RALB,"[…], time 7 day",3 g/dL
same,TBIL,"[…], time 7 day",0 mg/dL
same,TC,"[…], time 7 day",75.8 mg/dL
same,TG,"[…], time 7 day",107.8 mg/dL
same,TP,"[…], time 7 day",5.5 g/dL
same,gamma-GTP,"[…], time 7 day",1.4 IU/L
same,ALP,"[…], time 14 day",1779.4 IU/L
same,ALT,"[…], time 14 day",41.4 IU/L
same,AST,"[…], time 14 day",64.8 IU/L
same,BUN,"[…], time 14 day",15.6 mg/dL
same,CRE,"[…], time 14 day",0.1 mg/dL
same,Ca,"[…], time 14 day",10.6 mg/dL
same,Cl,"[…], time 14 day",105.6 meq/L
same,DBIL,"[…], time 14 day",0 mg/dL
same,IP,"[…], time 14 day",7.1 mg/dL
same,LDH,"[…], time 14 day",139.4 IU/L
same,Na,"[…], time 14 day",142.6 meq/L
same,PL,"[…], time 14 day",146.6 mg/dL
same,RALB,"[…], time 14 day",3.1 g/dL
same,TBIL,"[…], time 14 day",0.004 mg/dL
same,TC,"[…], time 14 day",66 mg/dL
same,TG,"[…], time 14 day",194 mg/dL
same,TP,"[…], time 14 day",5.8 g/dL
same,gamma-GTP,"[…], time 14 day",2 IU/L
same,ALP,"[…], time 28 day",1162.8 IU/L
same,ALT,"[…], time 28 day",55 IU/L
same,AST,"[…], time 28 day",85.2 IU/L
same,BUN,"[…], time 28 day",17 mg/dL
same,CRE,"[…], time 28 day",0.2 mg/dL
same,Ca,"[…], time 28 day",10.7 mg/dL
same,Cl,"[…], time 28 day",106.4 meq/L
same,DBIL,"[…], time 28 day",0 mg/dL
same,IP,"[…], time 28 day",6.7 mg/dL
same,LDH,"[…], time 28 day",190.2 IU/L
same,Na,"[…], time 28 day",140.6 meq/L
same,PL,"[…], time 28 day",151 mg/dL
same,RALB,"[…], time 28 day",2.9 g/dL
same,TBIL,"[…], time 28 day",0.012 mg/dL
same,TC,"[…], time 28 day",79.6 mg/dL
same,TG,"[…], time 28 day",112.4 mg/dL
same,TP,"[…], time 28 day",5.9 g/dL
same,gamma-GTP,"[…], time 28 day",2.2 IU/L
